By IC50 is commonly meant the concentration that gives 50% inhibition. The term melting point denotes the temperature of the solid-liquid transition. In general, Km refers to the substrate concentration at which the rate is half of its maximum. As a reminder, the Vmax is the rate approached at saturating substrate.

These results are taken from publication PMC10658973, “Thiazolopyrimidine derivatives as novel class of small molecule tyrosinase inhibitor” (BMC Chemistry, 2023).

Data set [1] addresses tyrosinase. The note with it: previously reported, cited from earlier work.
For data set [2], the target named is tyrosinase (EC 1.14.18.1) (Agaricus bisporus, UniProt C7FF04). The data set is described as follows: Tyrosinase inhibitory assay (L-Dopa oxidation). The settings on record: for IC50: tyrosinase, L-Dopa substrate, mean of three independent experiments. It counts as biochemical.
Chain of tyrosinase (EC 1.14.18.1) (C7FF04 1-392): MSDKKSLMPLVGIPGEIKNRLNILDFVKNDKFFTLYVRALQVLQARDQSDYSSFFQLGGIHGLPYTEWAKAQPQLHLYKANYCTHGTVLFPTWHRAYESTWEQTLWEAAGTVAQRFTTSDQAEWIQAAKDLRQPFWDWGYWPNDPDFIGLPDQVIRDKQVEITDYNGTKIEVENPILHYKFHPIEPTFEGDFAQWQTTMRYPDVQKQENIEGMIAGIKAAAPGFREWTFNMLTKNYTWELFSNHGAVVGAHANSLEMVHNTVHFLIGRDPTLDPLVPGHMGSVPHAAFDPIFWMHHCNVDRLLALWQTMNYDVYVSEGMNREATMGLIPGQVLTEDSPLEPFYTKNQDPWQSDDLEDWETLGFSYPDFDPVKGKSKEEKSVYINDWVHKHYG
Data set [3] has as its system tyrosinase. In words: Enzyme kinetic studies (Lineweaver-Burk, L-Dopa substrate). Format: biochemical. From the text:
The Lineweaver–Burk reciprocal plot was provided by plotting 1/V against 1/[S] at variable concentrations of the L-Dopa.

Data set [4] relates to tyrosinase. In words: UV/VIS spectra of tyrosinase with L-Dopa and inhibitor. Format: biochemical. The note with it: 475 nm, L-Dopa + tyrosinase, various concentrations of inhibitor. The protocol: UV spectra of compound 6a, tyrosinase and L-Dopa were analyzed separately. […] However, when L-Dopa was added to tyrosinase without an inhibitor, the highest absorbance was observed, confirming the generation of dopachrome.

The next data set has as its system mTYR. Set-up: method as in PMID 29427586. The settings on record: previously reported; cited from earlier work.
The subject of the next data set is hTYR. Details: method as in PMID 29427586. The note with it: previously reported; cited from earlier work.

Structures are written as SMILES. “Also recorded” adds a separate entry of the source. Where two headings read alike, the source gives them in different places.

`CCCCC(=O)NC(=S)Nc1ccc(OC)cc1` [B]: the values for the IC50 on tyrosinase [1] and at tyrosinase [1] (listed as compound B) were 1.56 µM and 5.4 µM, respectively.

As for `Cn1cc[nH]c1=S` [C, methimazole], the IC50 at tyrosinase [1] is 114 µM.

`CCOC(=O)C1=C(C)N=C2SC=C(C)N2C1c1ccccc1` (centres unmarked) [Compound 6a, Ethyl 3,7-dimethyl-5-phenyl-5H-thiazolo[3,2-a]pyrimidine-6-carboxylate] gave a melting point of 110 to 111 °C. In data set [2], this compound had an IC50 of 28.5 µM. The type of inhibition result in the data set with tyrosinase [3] (Lineweaver-Burk plot, L-Dopa substrate) is reported as “noncompetitive inhibitor; also recorded: noncompetitive mode of inhibition”. Besides, in the data set on tyrosinase [3] (inhibitor concentration 5 µM), the Km was 690 µM and the Vmax is 22.22 mM/min. For the same compound, in the data set with tyrosinase [3] (inhibitor concentration 10 µM), the Km worked out at 680 µM and the Vmax was found to be 12.66 mM/min. Further, in the data set on tyrosinase [3] (inhibitor concentration 25 µM), the Km stood at 650 µM and the Vmax amounted to 10.35 mM/min. In the data set with tyrosinase [3] (inhibitor concentration 50 µM), the Km turned out to be 690 µM and the Vmax stood at 8.40 mM/min. In the data set with tyrosinase [3] (inhibitor concentration 100 µM), the Km was determined as 660 µM and the Vmax was 5.15 mM/min. Besides, the “absorbance intensity (dopachrome formation)” value in the data set with tyrosinase [4] is given as “decreased dose-dependently”.

Consider `CCOC(=O)C1=C(C)N=C2SC=C(C)N2C1c1ccccc1F` (centres unmarked) [Compound 6b, Ethyl 5-(2-fluorophenyl)-3,7-dimethyl-5H-thiazolo[3,2-a]pyrimidine-6-carboxylate], for which the melting point was in the range of 111 to 112 °C. In addition, the IC50 in data set [2] was 40.8 µM.

Regarding `CCOC(=O)C1=C(C)N=C2SC=C(C)N2C1c1cccc(F)c1` (centres unmarked) [Compound 6c, Ethyl 5-(3-fluorophenyl)-3,7-dimethyl-5H-thiazolo[3,2-a]pyrimidine-6-carboxylate], the melting point fell in the range of 113 to 114 °C. In data set [2], 56 µM corresponded to half-maximal inhibition (IC50).

On to `CCOC(=O)C1=C(C)N=C2SC=C(C)N2C1c1ccccc1Cl` (centres unmarked) [Compound 6d, Ethyl 5-(2-chlorophenyl)-3,7-dimethyl-5H-thiazolo[3,2-a]pyrimidine-6-carboxylate], for which the melting point fell in the range of 114 to 115 °C. This compound also registered an IC50 in data set [2] of 34.2 µM.

`CCOC(=O)C1=C(C)N=C2SC=C(C)N2C1c1ccc(Cl)cc1` (centres unmarked) [Compound 6e, Ethyl 5-(4-chlorophenyl)-3,7-dimethyl-5H-thiazolo[3,2-a]pyrimidine-6-carboxylate] returned a melting point of 113 to 114 °C. In addition, it took 37.7 µM to reach half-maximal inhibition in data set [2] (IC50).

`CCOC(=O)C1=C(C)N=C2SC=C(C)N2C1c1cccc(Br)c1` (centres unmarked) [Compound 6f, Ethyl 5-(3-bromophenyl)-3,7-dimethyl-5H-thiazolo[3,2-a]pyrimidine-6-carboxylate]: the melting point fell in the range of 112 to 113 °C. In data set [2], this compound came in with an IC50 of 85.3 µM.

Compound `CCOC(=O)C1=C(C)N=C2SC=C(C)N2C1c1cccc([N+](=O)[O-])c1` (centres unmarked) [Compound 6g, Ethyl 3,7-dimethyl-5-(3-nitrophenyl)-5H-thiazolo[3,2-a]pyrimidine-6-carboxylate] registered a melting point of 151 to 152 °C. This compound also yielded an IC50 in data set [2] of 45.2 µM.

The compound `CCOC(=O)C1=C(C)N=C2SC=C(C)N2C1c1ccc(C)cc1` (centres unmarked) [Compound 6h, Ethyl 3,7-dimethyl-5-(p-tolyl)-5H-thiazolo[3,2-a]pyrimidine-6-carboxylate] came in with a melting point of 114 to 115 °C. Moreover, in data set [2] (SAR discussion), the “tyrosinase inhibitory activity (in words)” value is given as “complete loss of activity”. Further, in data set [2], the IC50 is > 250 µM.

As to `CCOC(=O)C1=C(C)N=C2SC=C(C)N2C1c1ccc(OC)cc1` (centres unmarked) [Compound 6i, Ethyl 5-(4-methoxyphenyl)-3,7-dimethyl-5H-thiazolo[3,2-a]pyrimidine-6-carboxylate], the melting point is 111 to 112 °C. Moreover, the IC50 in data set [2] came out at 35.7 µM.

With `CCOC(=O)C1=C(C)N=C2SC=C(C)N2C1c1ccc(O)c(OC)c1` (centres unmarked) [Compound 6j, Ethyl 5-(4-hydroxy-3-methoxyphenyl)-3,7-dimethyl-5H-thiazolo[3,2-a]pyrimidine-6-carboxylate], the melting point lay within 121 to 122 °C. Besides, the IC50 in data set [2] is 40.8 µM.

For the compound `Nc1nc(-c2ccc(O)cc2O)cs1` [Compound D], the IC50 on tyrosinase [1] is 51 µM.

Take `CC(C)C(=O)Nc1nc(-c2ccc(O)cc2O)cs1` [Compound E]: the IC50 is 108 µM with mTYR and 1.1 µM in the data set on hTYR.

For the compound `CCOC(=O)C1=C(N)Oc2c(ccc3ccccc23)C1c1ccc(N(C)C)cc1` (centres unmarked) [F], the IC50 at tyrosinase [1] was 34.1 µM.

Take `NC(=S)N/N=C/c1cc(COC(=O)c2ccccc2)cs1` [G]: at tyrosinase [1], the IC50 is 0.068 µM.
